Source: US20230413819A1, “METHODS FOR CONTROLLING FLEA AND TICK INFESTATIONS IN A MAMMAL” (In the Bowl Animal Health, Inc., priority 2021, published 2023)
Like-named read-outs stand apart in the source and are kept apart here.

Assays:
[1] = Plasma concentration of mivorilaner, 0.75 mg/kg daily oral (Examples 4 and 10); assay type: in vivo, dogs; conditions: dog, 0.75 mg/kg/day
[2] = Average plasma concentration of mivorilaner, various daily oral doses (Examples 5 and 11); assay type: in vivo, dogs; conditions: dog, fed; for concentration at 0 h: 0 h after initial dose; for concentration at 72 h: 72 h after initial dose; for concentration at 120 h: 120 h after initial dose; for concentration at 168 h: 168 h after initial dose; for concentration at 336 h: 336 h after initial dose; for concentration at 504 h: 504 h after initial dose; for concentration at 720 h: 720 h after initial dose; for concentration at 888 h: 888 h after initial dose; for concentration at 1056 h: 1056 h after initial dose; for concentration at 1224 h: 1224 h after initial dose; for concentration at 1440 h: 1440 h after initial dose
Ctenocephalides felis = experiment: Efficacy of isoxazoline (mivorilaner) per os to dogs against Ctenocephalides felis (Example 10); assay type: in vivo; conditions: 0.75 mg/kg/day oral
Excerpt: Methods: A pool of 14 dogs are to be preliminarily infested with ˜100 unfed adult C. felis in order to identify dogs that can suitably sustain a reliable infestation rate, defined as approximately 50% fleas being live at the end of a 48-hour period. The 12 dogs with the highest live flea counts are to be selected for inclusion in the study. The dogs are to be divided into a control group and a treatment group.
The dogs are to be housed individually during the study period and are to be fed a commercial dry dog food ration with ad libitum access to water.
Each dog in the treatment group is to receive by mouth a liquid formulation of isoxazoline. The dosage of 0.75 mg/kg is to be administered to the dogs on each of days 0-29.
Dogs in the control group are not to receive isoxazoline or any other flea control treatment. Each dog in the treatment group is to be offered its daily ration (dry food) and the individual doses of liquid formulation are to be administered after the individual dog has eaten at least 25% of its total daily ration. After receiving the dose of isoxazoline, the dogs are to be allowed to continue eating. This mimics incorporating the isoxazoline in feed. […]
Results: referring now to FIG. 16, the arithmetic mean efficacy in reduction of live adult flea counts is shown. The Percent Efficacy is calculated according to the formula: […]

O=C(CNC(=O)c1sc(C2=NO[C@@](c3cc(Cl)c(F)c(Cl)c3)(C(F)(F)F)C2)c2c1CCC2)NCC(F)F [mivorilaner, 3-[(5S)-5-(3,5-dichloro-4-fluorophenyl)-5-(trifluoromethyl)-4,5-dihydroisoxazol-3-yl]-N-[2-[(2,2-difluoroethyl)amino]-2-oxoethyl]-5,6-dihydro-4H-cyclopenta[c]thiophene-1-carboxamide] gave a concentration at 37 day ([1]; 0.75 mg/kg/day oral days 0-29, Day 37, read-out: Mivorilaner Concentration, Average of 6 canines) of 2020 ng/mL, a concentration at 37 day ([1]; 0.75 mg/kg/day oral days 0-29, Day 37, read-out: Mivorilaner Concentration, individual canines) of 2410 ng/mL and a concentration at 0 h ([2]; Group 2, 0.125 mg/kg/day oral) of 0 ng/mL. For the same molecule, the concentration at 72 h ([2]; Group 2, 0.125 mg/kg/day oral) was 136 ng/mL, the concentration at 120 h ([2]; Group 2, 0.125 mg/kg/day oral) was 213 ng/mL and the concentration at 168 h ([2]; Group 2, 0.125 mg/kg/day oral) was 244 ng/mL. It also gave a concentration at 336 h ([2]; Group 2, 0.125 mg/kg/day oral) of 384 ng/mL, a concentration at 504 h ([2]; Group 2, 0.125 mg/kg/day oral) of 404 ng/mL and a concentration at 720 h ([2]; Group 2, 0.125 mg/kg/day oral) of 420 ng/mL. The concentration at 888 h ([2]; Group 2, 0.125 mg/kg/day oral) was 448 ng/mL, the concentration at 1056 h ([2]; Group 2, 0.125 mg/kg/day oral) was 428 ng/mL and the concentration at 1224 h ([2]; Group 2, 0.125 mg/kg/day oral) was 486 ng/mL. For the same molecule, the concentration at 1440 h ([2]; Group 2, 0.125 mg/kg/day oral) was 898 ng/mL, the concentration at 0 h ([2]; Group 3, 0.25 mg/kg/day oral) was 0 ng/mL and the concentration at 72 h ([2]; Group 3, 0.25 mg/kg/day oral) was 283 ng/mL. For the same molecule, the concentration at 120 h ([2]; Group 3, 0.25 mg/kg/day oral) was 450 ng/mL, the concentration at 168 h ([2]; Group 3, 0.25 mg/kg/day oral) was 579 ng/mL and the concentration at 336 h ([2]; Group 3, 0.25 mg/kg/day oral) was 883 ng/mL. The concentration at 504 h ([2]; Group 3, 0.25 mg/kg/day oral) was 878 ng/mL, the concentration at 720 h ([2]; Group 3, 0.25 mg/kg/day oral) was 1020 ng/mL and the concentration at 888 h ([2]; Group 3, 0.25 mg/kg/day oral) was 1000 ng/mL. It also gave a concentration at 1056 h ([2]; Group 3, 0.25 mg/kg/day oral) of 945 ng/mL, a concentration at 1224 h ([2]; Group 3, 0.25 mg/kg/day oral) of 1040 ng/mL and a concentration at 1440 h ([2]; Group 3, 0.25 mg/kg/day oral) of 999 ng/mL. The concentration at 0 h ([2]; Group 4, 0.5 mg/kg/day oral) was 0 ng/mL, the concentration at 72 h ([2]; Group 4, 0.5 mg/kg/day oral) was 474 ng/mL and the concentration at 120 h ([2]; Group 4, 0.5 mg/kg/day oral) was 763 ng/mL. The concentration at 168 h ([2]; Group 4, 0.5 mg/kg/day oral) was 888 ng/mL, the concentration at 336 h ([2]; Group 4, 0.5 mg/kg/day oral) was 1460 ng/mL and the concentration at 504 h ([2]; Group 4, 0.5 mg/kg/day oral) was 1630 ng/mL. For the same molecule, the concentration at 720 h ([2]; Group 4, 0.5 mg/kg/day oral) was 1870 ng/mL, the concentration at 888 h ([2]; Group 4, 0.5 mg/kg/day oral) was 1990 ng/mL and the concentration at 1056 h ([2]; Group 4, 0.5 mg/kg/day oral) was 2010 ng/mL. For the same molecule, the concentration at 1224 h ([2]; Group 4, 0.5 mg/kg/day oral) was 2320 ng/mL, the concentration at 1440 h ([2]; Group 4, 0.5 mg/kg/day oral) was 2300 ng/mL and the concentration at 0 h ([2]; Group 5, 1.0 mg/kg/day oral) was 0 ng/mL. It also gave a concentration at 72 h ([2]; Group 5, 1.0 mg/kg/day oral) of 951 ng/mL, a concentration at 120 h ([2]; Group 5, 1.0 mg/kg/day oral) of 1510 ng/mL and a concentration at 168 h ([2]; Group 5, 1.0 mg/kg/day oral) of 1790 ng/mL. For the same molecule, the concentration at 336 h ([2]; Group 5, 1.0 mg/kg/day oral) was 2690 ng/mL, the concentration at 504 h ([2]; Group 5, 1.0 mg/kg/day oral) was 3020 ng/mL and the concentration at 720 h ([2]; Group 5, 1.0 mg/kg/day oral) was 3760 ng/mL. For the same molecule, the concentration at 888 h ([2]; Group 5, 1.0 mg/kg/day oral) was 3860 ng/mL, the concentration at 1056 h ([2]; Group 5, 1.0 mg/kg/day oral) was 4260 ng/mL and the concentration at 1224 h ([2]; Group 5, 1.0 mg/kg/day oral) was 4840 ng/mL. The concentration at 1440 h ([2]; Group 5, 1.0 mg/kg/day oral) was 4140 ng/mL and the “day after initial administration by which the treatment is effective (reduction of live adult flea counts)” value (Ctenocephalides felis) was no more than 4 days.
